Measurements: patent publication US9388389B2, “JFH-1 based HCV cell culture systems for NS5A of genotypes 1-7” (Hvidovre Hospital, priority 2009, dated 2016)

Tests used:
[1] = test system: SA13(5a)-T93H; assay: BMS-790052 treatment of infected cultures; format: cell-based, hepatitis C virus
Description: (§1) 5×10^3 naïve Huh7.5 cells were plated per well in a poly-D-lysine coated 96-well plate (Nunc, Roskilde, D K) one day before infection with different recombinant viruses. Infectious doses were chosen to aim at 400-1000 single infected cells in non-treated wells at the end of the experiment. J6/JFH1 was included with two infectious doses (high and low) to control for impact of dose variability. The infectious dose of other recombinants was in the range between. […] On day three cells were fixed and immunostained for NS3 expression as described above. In parallel, cell viability was monitored with CellTiter™ 96 AQueous One Solution Cell Proliferation Assay (Promega, Madison, Wis. USA). The number of single infected cells was determined by automated counting of individual wells as described above.
(§2) To improve HCV treatment, much attention has been drawn to development of specific small molecule HCV inhibitors, including inhibitors of NS5A. Using the NS5A genotype recombinants, we investigated sensitivity to the NS5A inhibitor most advanced in clinical trials, BMS-790052. Treatment experiments using the specific NS5A inhibitor BMS-790052 (synthesized by Acme Bioscience, Palo Alto, Calif., USA) were conducted similar to what was described for interferon-alpha.
(§3) The best described resistance mutation for this drug class, change of NS5A residue 93, induced >10-fold resistance to BMS-790052 for genotype 1 replicons. We changed this residue to histidine in the NS5A genotype 1-6 recombinants; QC69(7a) naturally had histidine. In BMS-790052 treatment experiments, H77C(1a)-Y93H, JFH1(2a)-Y93H and S52(3a)-Y93H were >1000-fold, J4(1b)-Y93H, J6(2a)-Y93H and ED43(4a)-Y93H˜100-fold, and SA13(5a)-T93H and HK6a(6a)-T93H<5-fold more resistant than the respective original recombinants (Table 21). […] The presence of L31M in the J6(2a) isolate and C92E in the S52(3a) isolate corresponded to the higher resistance of these isolates. Further, the lower sensitivity of J1(1a) compared to other 1a recombinants could be caused by the histidine found at NS5A residue 30, previously associated with resistance in patients.

[2] = test system: ED43(4a)-Y93H; assay: BMS-790052 treatment of infected cultures; format: cell-based, hepatitis C virus
Description: as §1, §2, §3

[3] = test system: HK6a(6a)-T93H; assay: BMS-790052 treatment of infected cultures; format: cell-based, hepatitis C virus
Description: as §1, §2, §3

[4] = test system: J6/JFH1 with NS5A mutation L31M; assay: BMS-790052 treatment of infected cultures; format: cell-based, hepatitis C virus
Description: as §1, §2, §3

[5] = test system: JFH1(2a)-Y93H; assay: BMS-790052 treatment of infected cultures; format: cell-based, hepatitis C virus
Description: as §1, §2, §3

[6] = test system: S52(3a)-Y93H; assay: BMS-790052 treatment of infected cultures; format: cell-based, hepatitis C virus
Description: as §1, §2, §3

[7] = test system: J4(1b)-Y93H; assay: BMS-790052 treatment of infected cultures; format: cell-based, hepatitis C virus
Description: as §1, §2, §3

[8] = test system: H77C(1a)-Y93H; assay: BMS-790052 treatment of infected cultures; format: cell-based, hepatitis C virus
Description: as §1, §2, §3

[9] = test system: J6(2a)-Y93H; assay: BMS-790052 treatment of infected cultures; format: cell-based, hepatitis C virus
Description: as §1, §2, §3

[10] = test system: J6/JFH1 with NS5A mutation C92E; assay: BMS-790052 treatment of infected cultures; format: cell-based, hepatitis C virus
Description: as §1, §2, §3

[11] = test system: J6/JFH1 with JFH1 NS5A domain I exchanged to the J6 sequence; assay: BMS-790052 treatment of infected cultures; format: cell-based, hepatitis C virus
Description: as §1, §2, §3

[12] = test system: J6/JFH1 with NS5A mutation K30A; assay: BMS-790052 treatment of infected cultures; format: cell-based, hepatitis C virus
[13] = test system: HCV NS5A genotype 1-7 recombinants; assay: BMS-790052 treatment of infected cultures, high-throughput assay; format: cell-based; settings: Hepatitis C virus, most isolates
Description: as §1, §2

[14] = test system: J6/JFH1 with NS5A mutation L27I; assay: BMS-790052 treatment of infected cultures; format: cell-based, hepatitis C virus
[15] = test system: genotype 1 replicons; settings: cited from earlier work

## COC(=O)N[C@H](C(=O)N1CCC[C@H]1c1nc(-c2ccc(-c3ccc(-c4c[nH]c([C@@H]5CCCN5C(=O)[C@@H](NC(=O)OC)C(C)C)n4)cc3)cc2)c[nH]1)C(C)C [BMS-790052]
[1]; Hepatitis C virus, SA13(5a), NS5A mutation T93H, read-out: NS5A inhibitor, EC50 (nM), putative resistance mutant
  EC50: 0.14 nM
[1]; SA13(5a) T93H vs original SA13(5a)
  Fold resistance compared to original: 4.2 fold
[1]; SA13(5a)-T93H
  fold more resistant than the respective original recombinant: < 5 fold
[2]; ED43(4a) Y93H vs original ED43(4a)
  Fold resistance compared to original: 30 fold
[2]; ED43(4a)-Y93H
  fold more resistant than the respective original recombinant: ~100 fold
[2]; Hepatitis C virus, read-out: NS5A inhibitor, EC50 (nM), putative resistance mutant
  EC50: 0.53 nM
[3]; HK6a(6a) T93H vs original HK6a(6a)
  Fold resistance compared to original: 4.3 fold
[3]; HK6a(6a)-T93H
  fold more resistant than the respective original recombinant: < 5 fold
[3]; Hepatitis C virus, HK6a(6a), NS5A mutation T93H, read-out: NS5A inhibitor, EC50 (nM), putative resistance mutant
  EC50: 0.14 nM
[4]; Hepatitis C virus, JFH1(2a), NS5A mutation L31M, single experiment of three replicates, read-out: NS5A inhibitor, EC50 (nM), putative resistance mutant
  EC50: 17 nM
[4]; JFH1(2a) L31M vs original JFH1(2a)
  Fold resistance compared to original: 190 fold
[4]; NS5A L31M in the J6/JFH1 background
  resistance: confer resistance
[5]; Hepatitis C virus, JFH1(2a), NS5A mutation Y93H, read-out: NS5A inhibitor, EC50 (nM), putative resistance mutant
  EC50: 140 nM
[5]; JFH1(2a) Y93H vs original JFH1(2a)
  Fold resistance compared to original: 1600 fold
[5]; JFH1(2a)-Y93H
  fold more resistant than the respective original recombinant: > 1000 fold
[6]; Hepatitis C virus, S52(3a), NS5A mutation Y93H, read-out: NS5A inhibitor, EC50 (nM), putative resistance mutant
  EC50: 1900 nM
[6]; S52(3a) Y93H vs original S52(3a)
  Fold resistance compared to original: 2100 fold
[6]; S52(3a)-Y93H
  fold more resistant than the respective original recombinant: > 1000 fold
[7]; Hepatitis C virus, J4(1b), NS5A mutation Y93H, read-out: NS5A inhibitor, EC50 (nM), putative resistance mutant
  EC50: 0.77 nM
[7]; J4(1b) Y93H vs original J4(1b)
  Fold resistance compared to original: 82 fold
[7]; J4(1b)-Y93H
  fold more resistant than the respective original recombinant: ~100 fold
[8]; H77C(1a) Y93H vs original H77C(1a)
  Fold resistance compared to original: 4300 fold
[8]; H77C(1a)-Y93H
  fold more resistant than the respective original recombinant: > 1000 fold
[8]; Hepatitis C virus, H77C(1a), NS5A mutation Y93H, read-out: NS5A inhibitor, EC50 (nM), putative resistance mutant
  EC50: 110 nM
[9]; Hepatitis C virus, J6(2a), NS5A mutation Y93H, read-out: NS5A inhibitor, EC50 (nM), putative resistance mutant
  EC50: 2000 nM
[9]; J6(2a) Y93H vs original J6(2a)
  Fold resistance compared to original: 140 fold
[9]; J6(2a)-Y93H
  fold more resistant than the respective original recombinant: ~100 fold
[10]; Hepatitis C virus, JFH1(2a), NS5A mutation C92E, single experiment of three replicates, read-out: NS5A inhibitor, EC50 (nM), putative resistance mutant
  EC50: 14 nM
[10]; JFH1(2a) C92E vs original JFH1(2a)
  Fold resistance compared to original: 170 fold
[10]; NS5A C92E in the J6/JFH1 background
  resistance: confer resistance
[11]; Hepatitis C virus, genotype 2a, J6 (domain I), single experiment of three replicates, read-out: NS5A inhibitor, EC50 (nM), original
  EC50: 19 nM
[11]; exchange of JFH1 NS5A domain I to the corresponding J6 sequence
  resistance: confer resistance
[12]; Hepatitis C virus, JFH1(2a), NS5A mutation K30A, single experiment of three replicates, read-out: NS5A inhibitor, EC50 (nM), putative resistance mutant
  EC50: 0.034 nM
[12]; JFH1(2a) K30A vs original JFH1(2a)
  Fold resistance compared to original: 0.38 fold
[13]
  EC50: < 0.1 nM
[14]; Hepatitis C virus, JFH1(2a), NS5A mutation L27I, single experiment of three replicates, read-out: NS5A inhibitor, EC50 (nM), putative resistance mutant
  EC50: 0.14 nM
[14]; JFH1(2a) L27I vs original JFH1(2a)
  Fold resistance compared to original: 1.6 fold
[15]
  fold resistance induced by change of NS5A residue 93: > 10 fold
